# In US20260224588A1, “BENZODIAZEPINONE-DERIVED INHIBITORS OF EGFR AND HER2” (The Research Foundation for the State University of New York, priority 2023, published 2026):
# Columns and labels:
# Assay in all cases: KINOMEscan
# Format in all cases: binding
# Settings in all cases: 1 μM of compound 4; read-out: POC
# [1] = target: T1, ABL1(F317I)-phosphorylated (Homo sapiens, UniProt P00519, F317I)
# T1 construct: purchased Eurofins DiscoverX Corporation
# [2] = target: ACVRL1 (Homo sapiens, UniProt P37023)
# [3] = target: ALK(L1196M) (Homo sapiens, UniProt Q9UM73, L1196M)
# [4] = target: BIKE (Homo sapiens, UniProt Q9NSY1)
# [5] = target: BTK (Homo sapiens, UniProt Q06187)
# [6] = target: CHEK1 (Homo sapiens, UniProt O14757)
# Chain of CHEK1 (O14757 whole entry): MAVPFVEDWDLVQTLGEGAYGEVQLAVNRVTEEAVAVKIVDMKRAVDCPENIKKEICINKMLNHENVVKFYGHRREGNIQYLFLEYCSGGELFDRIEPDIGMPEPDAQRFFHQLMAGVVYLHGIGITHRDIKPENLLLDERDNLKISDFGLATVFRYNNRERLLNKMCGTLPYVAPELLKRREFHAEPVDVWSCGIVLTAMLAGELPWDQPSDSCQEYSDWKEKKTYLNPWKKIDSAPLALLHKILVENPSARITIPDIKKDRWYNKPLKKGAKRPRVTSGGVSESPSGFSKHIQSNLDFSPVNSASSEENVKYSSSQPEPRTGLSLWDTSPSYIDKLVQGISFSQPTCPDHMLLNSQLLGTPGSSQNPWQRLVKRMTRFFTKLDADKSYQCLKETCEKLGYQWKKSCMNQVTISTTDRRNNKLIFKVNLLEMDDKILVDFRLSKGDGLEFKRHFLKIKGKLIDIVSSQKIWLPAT
# [7] = target: CLK1 (Homo sapiens, UniProt P49759)
# [8] = target: CLK4 (Homo sapiens, UniProt Q9HAZ1)
# [9] = target: DYRK1A (Homo sapiens, UniProt Q13627)
# [10] = target: DYRK1B (Homo sapiens, UniProt Q9Y463)
# [11] = target: T2, EGFR(G719S) (Homo sapiens, UniProt P00533, G719S)
# T2 construct: purchased Eurofins DiscoverX (KINOMEscan service)
# T2 sequence (P00533 25-1210 G719S): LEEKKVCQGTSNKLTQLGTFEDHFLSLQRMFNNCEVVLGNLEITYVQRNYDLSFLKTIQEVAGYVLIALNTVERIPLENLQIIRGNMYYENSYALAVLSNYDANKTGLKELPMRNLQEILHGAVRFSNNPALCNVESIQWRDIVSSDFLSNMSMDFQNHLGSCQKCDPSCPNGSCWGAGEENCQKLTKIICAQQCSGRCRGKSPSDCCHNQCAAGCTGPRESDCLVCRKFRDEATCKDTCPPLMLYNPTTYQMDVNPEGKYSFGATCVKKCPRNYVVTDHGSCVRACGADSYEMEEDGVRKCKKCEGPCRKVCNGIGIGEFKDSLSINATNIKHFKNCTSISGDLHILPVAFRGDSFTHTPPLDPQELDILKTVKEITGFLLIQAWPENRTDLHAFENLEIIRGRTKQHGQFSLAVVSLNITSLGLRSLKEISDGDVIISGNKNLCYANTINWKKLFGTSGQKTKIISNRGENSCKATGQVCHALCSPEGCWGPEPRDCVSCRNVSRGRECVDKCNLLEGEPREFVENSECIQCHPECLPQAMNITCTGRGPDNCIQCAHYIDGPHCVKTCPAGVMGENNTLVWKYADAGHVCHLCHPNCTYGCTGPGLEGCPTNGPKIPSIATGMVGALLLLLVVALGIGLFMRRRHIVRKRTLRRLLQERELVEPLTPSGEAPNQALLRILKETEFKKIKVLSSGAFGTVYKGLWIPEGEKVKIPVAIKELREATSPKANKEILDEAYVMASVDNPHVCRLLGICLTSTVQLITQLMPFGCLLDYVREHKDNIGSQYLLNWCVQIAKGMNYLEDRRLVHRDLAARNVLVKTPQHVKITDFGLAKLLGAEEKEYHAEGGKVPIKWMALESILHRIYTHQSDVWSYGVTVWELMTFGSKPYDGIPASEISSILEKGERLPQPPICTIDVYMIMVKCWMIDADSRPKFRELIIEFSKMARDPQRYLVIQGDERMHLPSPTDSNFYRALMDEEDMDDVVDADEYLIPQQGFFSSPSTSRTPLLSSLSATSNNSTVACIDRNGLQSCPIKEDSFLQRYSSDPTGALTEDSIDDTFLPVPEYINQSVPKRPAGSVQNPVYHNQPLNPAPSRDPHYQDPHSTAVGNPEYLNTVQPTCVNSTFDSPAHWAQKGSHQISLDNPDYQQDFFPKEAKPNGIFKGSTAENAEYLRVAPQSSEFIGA
# [12] = target: T3, EPHB6 (Homo sapiens, UniProt O15197)
# T3 construct: purchased Eurofins DiscoverX (KINOMEscan service)
# [13] = target: T4, ERBB3 (Homo sapiens, UniProt P21860)
# T4 construct: purchased Eurofins DiscoverX Corporation
# [14] = target: T5, ERN1 (Homo sapiens, UniProt O75460)
# T5 construct: purchased Eurofins DiscoverX Corporation
# [15] = target: T6, FER (Homo sapiens, UniProt P16591)
# T6 construct: purchased Eurofins DiscoverX Corporation
# T6 sequence (P16591 whole entry): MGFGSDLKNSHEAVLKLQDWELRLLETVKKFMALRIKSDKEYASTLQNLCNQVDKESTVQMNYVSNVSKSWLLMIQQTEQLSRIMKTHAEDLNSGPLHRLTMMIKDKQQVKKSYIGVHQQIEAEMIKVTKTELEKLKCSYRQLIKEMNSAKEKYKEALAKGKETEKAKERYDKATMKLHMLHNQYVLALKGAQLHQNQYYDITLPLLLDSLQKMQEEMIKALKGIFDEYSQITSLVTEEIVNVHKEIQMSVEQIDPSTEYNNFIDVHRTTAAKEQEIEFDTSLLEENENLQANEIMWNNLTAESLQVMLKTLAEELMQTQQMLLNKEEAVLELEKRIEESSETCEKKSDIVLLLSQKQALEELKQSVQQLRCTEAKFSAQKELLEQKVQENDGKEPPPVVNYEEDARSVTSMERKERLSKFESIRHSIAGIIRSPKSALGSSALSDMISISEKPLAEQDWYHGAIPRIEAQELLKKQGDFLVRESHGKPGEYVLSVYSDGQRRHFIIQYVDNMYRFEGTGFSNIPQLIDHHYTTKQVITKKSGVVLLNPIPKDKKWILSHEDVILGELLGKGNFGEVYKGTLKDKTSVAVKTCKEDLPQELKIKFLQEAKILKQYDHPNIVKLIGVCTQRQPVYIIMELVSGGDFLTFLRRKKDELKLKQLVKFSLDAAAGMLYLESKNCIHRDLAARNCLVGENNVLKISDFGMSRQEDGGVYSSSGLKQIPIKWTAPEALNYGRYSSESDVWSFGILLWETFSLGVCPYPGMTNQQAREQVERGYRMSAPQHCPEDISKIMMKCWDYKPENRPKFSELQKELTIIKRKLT
# [16] = target: T7, FES (Homo sapiens, UniProt P07332)
# T7 construct: purchased Eurofins DiscoverX Corporation
# T7 sequence (P07332 whole entry): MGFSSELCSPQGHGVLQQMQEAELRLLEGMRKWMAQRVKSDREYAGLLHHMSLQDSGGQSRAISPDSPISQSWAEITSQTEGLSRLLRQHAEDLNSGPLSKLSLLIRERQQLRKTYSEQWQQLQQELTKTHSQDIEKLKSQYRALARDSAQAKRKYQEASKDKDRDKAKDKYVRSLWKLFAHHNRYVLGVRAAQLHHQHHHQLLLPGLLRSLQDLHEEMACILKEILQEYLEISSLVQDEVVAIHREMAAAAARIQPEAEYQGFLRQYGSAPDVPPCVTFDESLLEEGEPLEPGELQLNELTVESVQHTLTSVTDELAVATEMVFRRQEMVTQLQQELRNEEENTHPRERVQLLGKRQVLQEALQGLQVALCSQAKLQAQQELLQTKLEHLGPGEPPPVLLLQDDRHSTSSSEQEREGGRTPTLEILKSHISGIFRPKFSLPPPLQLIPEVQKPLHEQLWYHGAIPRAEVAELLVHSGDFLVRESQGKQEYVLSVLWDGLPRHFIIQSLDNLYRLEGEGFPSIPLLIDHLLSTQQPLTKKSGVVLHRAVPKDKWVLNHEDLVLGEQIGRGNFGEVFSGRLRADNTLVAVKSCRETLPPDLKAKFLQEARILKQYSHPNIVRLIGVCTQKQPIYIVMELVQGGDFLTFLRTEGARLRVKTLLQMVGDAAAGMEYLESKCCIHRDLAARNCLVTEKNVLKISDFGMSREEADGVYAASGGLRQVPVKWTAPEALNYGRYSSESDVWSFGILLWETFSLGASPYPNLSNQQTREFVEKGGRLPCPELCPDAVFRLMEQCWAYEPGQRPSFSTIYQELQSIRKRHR
# [17] = target: T8, FGFR3(G697C) (Homo sapiens, UniProt P22607, G697C)
# T8 construct: purchased Eurofins DiscoverX Corporation
# [18] = target: T9, FGFR4 (Homo sapiens, UniProt P22455)
# T9 construct: purchased Eurofins DiscoverX Corporation
# [19] = target: KIT(D816V) (Homo sapiens, UniProt P10721, D816V)
# [20] = target: LRRK2 (Homo sapiens, UniProt Q5S007)
# [21] = target: MAK (Homo sapiens, UniProt P20794)
# [22] = target: MAP3K3 (Homo sapiens, UniProt Q99759)
# [23] = target: MLCK (Homo sapiens, UniProt Q32MK0)
# [24] = target: MRCKB (Homo sapiens, UniProt Q9Y5S2)
# [25] = target: MYO3B (Homo sapiens, UniProt Q8WXR4)
# [26] = target: PIK3CB (Homo sapiens, UniProt P42338)
# [27] = target: PIP5K1A (Homo sapiens, UniProt Q99755)
# [28] = target: PIP5K1C (Homo sapiens, UniProt O60331)
# [29] = target: PRKD1 (Homo sapiens, UniProt Q15139)
# [30] = target: PRKD3 (Homo sapiens, UniProt O94806)
# [31] = target: PRKR (Homo sapiens, UniProt P19525)
# Chain of PRKR (P19525 whole entry): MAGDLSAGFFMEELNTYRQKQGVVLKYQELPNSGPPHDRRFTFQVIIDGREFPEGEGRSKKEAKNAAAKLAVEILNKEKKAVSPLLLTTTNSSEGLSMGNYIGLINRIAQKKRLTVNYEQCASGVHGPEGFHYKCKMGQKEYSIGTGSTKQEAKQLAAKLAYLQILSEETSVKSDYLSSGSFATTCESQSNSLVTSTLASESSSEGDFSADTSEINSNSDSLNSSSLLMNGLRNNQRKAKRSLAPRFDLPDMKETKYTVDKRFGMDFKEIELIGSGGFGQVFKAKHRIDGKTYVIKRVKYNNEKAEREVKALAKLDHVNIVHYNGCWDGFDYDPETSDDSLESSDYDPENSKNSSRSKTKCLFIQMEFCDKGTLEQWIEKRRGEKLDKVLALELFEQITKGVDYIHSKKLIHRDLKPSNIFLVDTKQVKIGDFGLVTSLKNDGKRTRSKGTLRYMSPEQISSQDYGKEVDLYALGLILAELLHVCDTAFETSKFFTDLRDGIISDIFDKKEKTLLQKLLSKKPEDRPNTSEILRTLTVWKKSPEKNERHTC
# [32] = target: T10, PYK2 (Homo sapiens, UniProt Q14289)
# T10 construct: purchased Eurofins DiscoverX Corporation (KINOMEscan screening service)
# [33] = target: T11, RIOK1 (Homo sapiens, UniProt Q9BRS2)
# T11 construct: purchased Eurofins DiscoverX Corporation (KINOMEscan screening service)
# [34] = target: T12, RSK1(Kin.Dom.2-C-terminal) (Homo sapiens, UniProt Q15418)
# T12 construct: RSK1(Kin.Dom.2-C-terminal); purchased Eurofins DiscoverX Corporation (KINOMEscan screening service)
# [35] = target: T13, TIE2 (Homo sapiens, UniProt Q02763)
# T13 construct: purchased Eurofins DiscoverX Corporation
# [36] = target: T14, TSSK3 (Homo sapiens, UniProt Q96PN8)
# T14 construct: purchased Eurofins DiscoverX Corporation
# [37] = target: T15, TYK2(JH2domain-pseudokinase) (Homo sapiens, UniProt P29597)
# T15 construct: TYK2(JH2domain-pseudokinase); purchased Eurofins DiscoverX
# T15 sequence (P29597 589-875 limits assumed): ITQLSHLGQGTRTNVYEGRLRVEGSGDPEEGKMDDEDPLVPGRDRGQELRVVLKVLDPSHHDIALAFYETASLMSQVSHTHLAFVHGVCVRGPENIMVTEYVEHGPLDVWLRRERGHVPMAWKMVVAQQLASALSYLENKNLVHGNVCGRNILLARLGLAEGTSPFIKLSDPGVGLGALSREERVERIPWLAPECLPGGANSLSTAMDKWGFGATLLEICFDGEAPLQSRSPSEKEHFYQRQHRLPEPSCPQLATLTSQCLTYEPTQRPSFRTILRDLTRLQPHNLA
# [38] = target: T16, TYRO3 (Homo sapiens, UniProt Q06418)
# T16 construct: purchased Eurofins DiscoverX
# T16 sequence (Q06418 41-890): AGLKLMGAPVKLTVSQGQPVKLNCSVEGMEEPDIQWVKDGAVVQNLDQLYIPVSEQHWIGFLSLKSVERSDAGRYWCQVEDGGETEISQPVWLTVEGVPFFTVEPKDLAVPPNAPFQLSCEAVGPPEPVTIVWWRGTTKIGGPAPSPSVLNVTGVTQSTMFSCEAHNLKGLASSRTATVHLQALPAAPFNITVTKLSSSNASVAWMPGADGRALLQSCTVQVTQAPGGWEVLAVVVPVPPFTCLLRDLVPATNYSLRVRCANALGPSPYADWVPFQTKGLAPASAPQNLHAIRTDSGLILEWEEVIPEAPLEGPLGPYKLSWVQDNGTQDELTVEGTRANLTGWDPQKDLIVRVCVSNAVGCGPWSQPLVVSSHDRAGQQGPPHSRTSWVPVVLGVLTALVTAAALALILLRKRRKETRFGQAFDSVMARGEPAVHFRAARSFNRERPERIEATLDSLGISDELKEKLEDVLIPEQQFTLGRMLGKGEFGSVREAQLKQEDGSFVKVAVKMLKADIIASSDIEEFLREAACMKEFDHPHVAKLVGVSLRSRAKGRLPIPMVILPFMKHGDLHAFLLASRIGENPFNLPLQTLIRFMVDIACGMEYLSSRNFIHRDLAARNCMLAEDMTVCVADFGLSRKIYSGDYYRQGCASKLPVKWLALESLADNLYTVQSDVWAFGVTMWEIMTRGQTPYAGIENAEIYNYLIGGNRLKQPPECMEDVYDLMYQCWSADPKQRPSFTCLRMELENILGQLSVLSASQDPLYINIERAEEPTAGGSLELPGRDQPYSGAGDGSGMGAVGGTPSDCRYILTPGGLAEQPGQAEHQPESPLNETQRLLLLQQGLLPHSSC
compound,measurement,setting,value
"C=CC(=O)Nc1ccc(OC)c(Nc2cc(-c3[nH]c(CC)nc3-c3cccc(NC(=O)c4cccc5c4NC(=O)c4ccccc4N5)c3)ccn2)c1 [Compound 4, N-(3-(5-(2-((5-Acrylamido-2-methoxyphenyl)amino)pyridin-4-yl)-2-ethyl-1H-imidazol-4-yl)phenyl)-11-oxo-10,11-dihydro-5H-dibenzo[b,e][1,4]diazepine-9-carboxamide]",remaining binding at 1 µM,[1],84%
same,remaining binding at 1 µM,[2],75%
same,remaining binding at 1 µM,[3],89%
same,remaining binding at 1 µM,[4],100%
same,remaining binding at 1 µM,[5],54%
same,remaining binding at 1 µM,[6],100%
same,remaining binding at 1 µM,[7],100%
same,remaining binding at 1 µM,[8],100%
same,remaining binding at 1 µM,[9],100%
same,remaining binding at 1 µM,[10],88%
same,remaining binding at 1 µM,[11],13%
same,remaining binding at 1 µM,[12],100%
same,remaining binding at 1 µM,[13],84%
same,remaining binding at 1 µM,[14],74%
same,remaining binding at 1 µM,[15],36%
same,remaining binding at 1 µM,[16],28%
same,remaining binding at 1 µM,[17],100%
same,remaining binding at 1 µM,[18],100%
same,remaining binding at 1 µM,[19],94%
same,remaining binding at 1 µM,[20],93%
same,remaining binding at 1 µM,[21],89%
same,remaining binding at 1 µM,[22],51%
same,remaining binding at 1 µM,[23],86%
same,remaining binding at 1 µM,[24],1.7%
same,remaining binding at 1 µM,[25],31%
same,remaining binding at 1 µM,[26],90%
same,remaining binding at 1 µM,[27],75%
same,remaining binding at 1 µM,[28],78%
same,remaining binding at 1 µM,[29],42%
same,remaining binding at 1 µM,[30],67%
same,remaining binding at 1 µM,[31],87%
same,remaining binding at 1 µM,[32],100%
same,remaining binding at 1 µM,[33],100%
same,remaining binding at 1 µM,[34],75%
same,remaining binding at 1 µM,[35],71%
same,remaining binding at 1 µM,[36],100%
same,remaining binding at 1 µM,[37],100%
same,remaining binding at 1 µM,[38],32%
